In ChEMBL document CHEMBL2157951, “Polysulfated xanthones: multipathway development of a new generation of dual anticoagulant/antiplatelet agents” (J Med Chem, 2011):
pIC50: −log10 of the molar value. Activity calls are given as the source filed them. The rule behind the calls is not given here.

Assays:
[1] = Stability in RPMI medium at 37 degC assessed as compound degradation incubated for 24 hrs; type: physicochemical
Plasma [2] = assay: Anticoagulant activity in human plasma assessed as effect on prothrombin time by coagulometer analysis; type: functional, cell-free
Blood [3] = assay: Anticoagulant activity in human whole blood assessed as time from beginning of clot formation until the amplitude of thromboelastogram reaches 20 mm at 3.12 x 10^-4 M by thromboelastography analysis in presence of intrinsic activator (reference value: 82 sec); type: functional
Coagulation factor X [4] = target: T1, Coagulation factor X (Homo sapiens, UniProt P00742); assay: Inhibition of human factor 10a assessed as CBS 31.39 substrate hydrolysis at 1 x 10^-3 M by spectrophotometric analysis
Blood [5] = assay: Anticoagulant activity in human whole blood assessed as period of time from initiation of the test to the initial fibrin formation at 3.12 x 10^-4 M by thromboelastography analysis in presence of intrinsic activator (reference value: 188 sec); type: functional
Plasma [6] = assay: Anticoagulant activity in human plasma assessed as concentration required to double the activated partial thromboplastin time by coagulometer analysis; type: functional
[7] = target: Vitamin K-dependent protein C (Homo sapiens) (UniProt P04070); assay: Inhibition of activated protein C in citreated human plasma using CBS 42.46 as substrate at 2 x 10^-3 M by chromogenic assay
[8] = target: Prothrombin (Homo sapiens) (UniProt P00734); assay: Inhibition of human thrombin assessed as chromozym TH substrate hydrolysis at 1.9 x 10^-9 by spectrophotometric analysis
Blood [9] = assay: Anticoagulant activity in human whole blood assessed as acceleration/kinetics of fibrin buildup and cross-linking at 3.12 x 10^-4 M by thromboelastography analysis in presence of intrinsic activator (reference value: 77 degree); type: functional
[10] = target: Coagulation factor X/antithrombin III (Homo sapiens) (UniProt P01008+P00742); assay: Inhibition of human factor 10a/antithrombin 3 assessed as CBS 31.39 substrate hydrolysis at 1 x 10^-3 M by spectrophotometric analysis; type: protein-complex assay
Plasma [11] = assay: Anticoagulant activity in human plasma assessed as concentration required to double the thrombin time by coagulometer analysis; type: functional
[12] = target: Vitamin K-dependent protein C (Homo sapiens) (UniProt P04070); assay: Inhibition of activated protein C in citreated human plasma using CBS 42.46 as substrate at 2.50 x 10^-4 M by chromogenic assay
Plasma [13] = assay: Reduction of prothrombin level in citreated human plasma by measuring prothrombin clotting time after mixing with factor 2 deficient plasma
[14] = target: Coagulation factor X/antithrombin III (Homo sapiens, UniProt P00742+P01008); assay: Inhibition of human factor 10a/antithrombin 3 assessed as CBS 31.39 substrate hydrolysis by spectrophotometric analysis; type: protein-complex assay
Coagulation factor X [15] = target: T1, Coagulation factor X; assay: Inhibition of human factor 10a assessed as CBS 31.39 substrate hydrolysis by spectrophotometric analysis
Plasma [16] = assay: Anticoagulant activity in human plasma assessed as effect on thrombin time by coagulometer analysis; type: functional, cell-free
Plasma [17] = assay: Anticoagulant activity in human plasma assessed as concentration required to double the prothrombin time by coagulometer analysis; type: functional
Plasma [18] = assay: Anticoagulant activity in human plasma assessed as effect on activated partial thromboplastin time by coagulometer analysis; type: functional, cell-free
[19] = target: Prothrombin (Homo sapiens) (UniProt P00734); assay: Inhibition of human thrombin assessed as chromozym TH substrate hydrolysis at 1 x 10^-4 to 1 x 10^-3 M by spectrophotometric analysis in presence of antithrombin-3
Blood [20] = assay: Anticoagulant activity in human whole blood assessed as amplitude of the clot at 10 mins at 3.12 x 10^-4 M by thromboelastography analysis in presence of intrinsic activator (reference value: 57 mm); type: functional
Plasma [21] = assay: Anticoagulant activity in human plasma assessed as effect on prothrombin time at 5 mM by coagulometer analysis relative to untreated control; type: functional
Plasma [22] = assay: Anticoagulant activity in human plasma assessed as effect on thrombin time at 5 x 10^-3 M by coagulometer analysis; type: functional, cell-free
Plasma [23] = assay: Anticoagulant activity in human plasma assessed as effect on activated partial thromboplastin time at 5 mM by coagulometer analysis relative to untreated control; type: functional
Mus musculus [24] = assay: Anticoagulant activity in ip dosed mouse assessed as increase of prothrombin time; type: functional, organism-based
Mus musculus [25] = assay: Hepatotoxicity in mouse assessed as GPT level in plasma at 300 umol/kg, ip after 120 mins (reference value: 40 U/L); type: toxicity, organism-based; details: in vivo, 2 h
[26] = Chemical stability of the compound in aqueous solution at 1.00 x 10^-2, 1.00 x 10^-4 and 1.00 x 10^-6 M at -20 degC after 15 days by HPLC analysis; details: buffer, 360 h, 10 mM, 100 µM, 1 µM
[27] = Chemical stability of the compound in potassium phosphate buffer at pH 6.7 assessed as compound remaining at 1 x 10^-5 M after 120 mins by HPLC analysis; type: physicochemical; details: read-out: Stability
Mus musculus [28] = assay: Anticoagulant activity in mouse assessed as increase of thrombin time at 150 and 300 umol/kg, ip measured after 120 mins; type: functional, organism-based
Mus musculus [29] = assay: Anticoagulant activity in mouse assessed as increase of activated prothrombin time at 300 umol/kg, po; type: functional, organism-based
Mus musculus [30] = assay: Anticoagulant activity in mouse assessed as increase of prothrombin time at 150 and 300 umol/kg, ip measured after 120 mins; type: functional, organism-based
[31] = Chemical stability of the compound in phosphate buffered saline at pH 7.4 assessed as compound remaining at 1 x 10^-5 M after 120 mins by HPLC analysis; type: physicochemical; details: read-out: Stability
Coagulation factor X [32] = target: T1, Coagulation factor X; assay: Non-competitive inhibition of human factor 10a using CBS 31.39 as substrate hydrolysis by Michaelis-Menten equation analysis
Mus musculus [33] = assay: Anticoagulant activity in mouse assessed as increase of activated partial thromboplastin time at 300 umol/kg, po; type: functional, organism-based
[34] = Chemical stability of the compound in sodium acetate buffer at pH 5 assessed as compound remaining at 1 x 10^-5 M after 120 mins by HPLC analysis; type: physicochemical; details: read-out: Stability
[35] = Solubility of the compound in water; type: physicochemical; details: buffer
Plasma [36] = assay: Metabolic stability in human plasma after 3 hrs by HPLC analysis by HPLC analysis; type: ADME, cell-free
[37] = Chemical stability of the compound in sodium boric acid at pH 9.1 assessed as compound remaining at 1 x 10^-5 M after 120 mins by HPLC analysis; type: physicochemical; details: sodium boric acid buffer, read-out: Stability
Mus musculus [38] = assay: Hepatotoxicity in mouse assessed as GOT level in plasma at 300 umol/kg, ip after 120 mins (reference value: 108 U/L); type: toxicity, organism-based; details: in vivo, 2 h
[39] = Chemical stability of the compound in aqueous solution at 1.00 x 10^-2, 1.00 x 10^-4 and 1.00 x 10^-6 M at 4 degC after 15 days by HPLC analysis; details: buffer, 360 h, 10 mM, 100 µM, 1 µM
[40] = Chemical stability of the compound in HCl buffer at pH 1 assessed as compound remaining at 1 x 10^-5 M after 120 mins by HPLC analysis; type: physicochemical; details: read-out: Stability
Mus musculus [41] = assay: Anticoagulant activity in mouse assessed as increase of activated partial thromboplastin time at 150 and 300 umol/kg, ip measured after 120 mins; type: functional, organism-based
Mus musculus [42] = assay: Anticoagulant activity in mouse assessed as increase of activated thrombin time at 300 umol/kg, po; type: functional, organism-based
[43] = Chemical stability of the compound in aqueous solution at 1.00 x 10^-2, 1.00 x 10^-4 and 1.00 x 10^-6 M at room temperature after 15 days by HPLC analysis; details: buffer, 360 h, 10 mM, 100 µM, 1 µM
Mus musculus [44] = assay: Anticoagulant activity in ip dosed mouse assessed as increase of activated partial thromboplastin time; type: functional, organism-based
Mus musculus [45] = assay: Anticoagulant activity in ip dosed mouse assessed as increase of thrombin time; type: functional, organism-based

For `O=S(=O)(O)Oc1ccc(/C=C/c2cc(O)cc(O)c2)cc1`, the Stability ([1]; 24 h) was “Stable”.

With `O=c1c2ccc(O[C@@H]3O[C@H](COS(=O)(=O)O)[C@@H](OS(=O)(=O)O)[C@H](OS(=O)(=O)O)[C@H]3OS(=O)(=O)O)cc2oc2cc(O[C@@H]3O[C@H](COS(=O)(=O)O)[C@@H](OS(=O)(=O)O)[C@H](OS(=O)(=O)O)[C@H]3OS(=O)(=O)O)ccc12` the Activity (Plasma [2]) was “Dose-dependent effect”, the Time (Blood [3]) was 114 s and the inhibition (Coagulation factor X [4]) was 66.3%. The Time (Blood [5]) was 469 s, the 2aPTT (Plasma [6]) was 0.06 mM and the inhibition [7] was greater than 50%. For the same compound, the inhibition [8] was 37%, the Activity (Blood [9]) was 68 degree and the inhibition [10] was 88.8%. For the same compound, the Activity (Plasma [11]) was 0.61 mM, the inhibition [12] was “inactive” and the Activity (Plasma [13]) was “Active”. The pIC50 [14] was 3.72, the pIC50 (Coagulation factor X [15]) was 3.13 and the Activity (Plasma [16]) was “Dose-dependent effect”. The 2PT (Plasma [17]) was 0.71 mM, the Activity (Plasma [18]) was “Dose-dependent effect” and the inhibition [19] was “inactive”. It also gave an Activity (Blood [20]) of 51 mm.

For `O=c1c2ccc(OS(=O)(=O)O)cc2oc2cc(OS(=O)(=O)O)ccc12`, the 2aPTT (Plasma [6]) was greater than 5 mM, the “fold change (FC)” value (Plasma [21]) was 1.1 and the Activity (Plasma [22]) was “inactive”. The “fold change (FC)” value (Plasma [23]) was 1.3 and the 2PT (Plasma [17]) was greater than 5 mM.

In the case of `O=c1c2cc(O)c(O)cc2oc2cc(O)c([C@@H]3O[C@H](COS(=O)(=O)O)[C@@H](OS(=O)(=O)O)[C@H](OS(=O)(=O)O)[C@H]3OS(=O)(=O)O)c(O)c12`, the Activity (Plasma [2]) was “Dose-dependent effect”, the 2aPTT (Plasma [6]) was 0.39 mM and the Activity (Plasma [16]) was “Dose-dependent effect”. The Activity (Plasma [18]) was “Dose-dependent effect”.

With `O=c1c2cc(O)c(O)cc2oc2cc(O)c([C@@H]3O[C@H](CO)[C@@H](O)[C@H](O)[C@H]3O)c(O)c12` the Activity (Plasma [21]) was “inactive”, the Activity (Plasma [22]) was “inactive” and the Activity (Plasma [23]) was “inactive”.

With `O=c1c2ccc(O[C@@H]3O[C@H](CO)[C@@H](O)[C@H](O)[C@H]3O)cc2oc2cc(O[C@@H]3O[C@H](CO)[C@@H](O)[C@H](O)[C@H]3O)ccc12` the Activity (Plasma [21]) was “inactive”, the Activity (Plasma [22]) was “inactive” and the Activity (Plasma [23]) was “inactive”.

In the case of `O=c1c2cc(OS(=O)(=O)O)c(OS(=O)(=O)O)cc2oc2cc(OS(=O)(=O)O)c([C@@H]3O[C@H](COS(=O)(=O)O)[C@@H](OS(=O)(=O)O)[C@H](OS(=O)(=O)O)[C@H]3OS(=O)(=O)O)c(O)c12` [MANGIFERIN HEPTASULFATE], the Activity (Mus musculus [24]) was “Dose-dependent effect”, the Activity (Plasma [2]) was “Dose-dependent effect” and the Activity (Mus musculus [25]) was 46 U/L. The Time (Blood [3]) was 86 s, the Stability [26] was “Stable” and the remaining at 2 h, 10 µM [27] was greater than 85%. The Activity (Mus musculus [28]) was “Active”, the inhibition (Coagulation factor X [4]) was 52.1% and the Activity (Mus musculus [29]) was “inactive”. The Time (Blood [5]) was 247 s, the 2aPTT (Plasma [6]) was 0.21 mM and the inhibition [7] was greater than 50%. The inhibition [8] was 37%, the Activity (Blood [9]) was 73 degree and the Activity (Mus musculus [30]) was “Active”. The remaining at 2 h, 10 µM [31] was greater than 85%, the inhibition (Coagulation factor X [32]) was “Active” and the inhibition [10] was 41%. The Activity (Mus musculus [33]) was “inactive”, the remaining at 2 h, 10 µM [34] was greater than 85% and the Activity (Plasma [11]) was 1.96 mM. For the same compound, the solubility [35] was “soluble”, the inhibition [12] was “inactive” and the Stability (Plasma [36]) was “Stable”. For the same compound, the remaining at 2 h, 10 µM [37] was greater than 85%, the Activity (Mus musculus [38]) was 125 U/L and the Activity (Plasma [13]) was “Active”. The Stability [39] was “Stable”, the remaining at 2 h, 10 µM [40] was greater than 85% and the pIC50 (Coagulation factor X [15]) was 3.01. The Activity (Mus musculus [41]) was “Active”, the Activity (Plasma [16]) was “Dose-dependent effect” and the 2PT (Plasma [17]) was 1.6 mM. For the same compound, the Activity (Plasma [18]) was “Dose-dependent effect”, the inhibition [19] was “inactive” and the Activity (Mus musculus [42]) was “inactive”. For the same compound, the Stability [43] was “Stable”, the Activity (Mus musculus [44]) was “Dose-dependent effect” and the Activity (Mus musculus [45]) was “Dose-dependent effect”. The Activity (Blood [20]) was 50 mm.

With `Oc1ccc(/C=C/c2cc(O)cc(O)c2)cc1` [RESVERATROL] the degraded at 24 h ([1]; RPMI medium, read-out: Drug degradation) was 50%.
